Where no end group is shown, it is not given here. The star is where a group is joined. Cam = NC(=O)C*
What was measured:
[1] = Quantification by GLP-2 ELISA of amount of migration to brain; format: in vivo, mice; settings: 6.0 nmol/mouse intranasal, brain isolated 20 minutes after administration; FIG. 5
Protocol: Mice were intranasally administered with 16% DMSO or the GLP-2 derivatives (6.0 nmol/mouse). The brain was isolated 20 minutes after the administration, and homogenized with BioMasher II (Nippi, Tokyo, Japan). A sample was prepared by performing centrifugal separation by 1000×g (4° C.) for 15 minutes and collecting a supernatant. The amount of the GLP-2 derivative in the sample was quantified using a GLP-2 ELISA kit. Specifically, a cleaning process including filling each well of a measurement plate with a cleaning fluid (350 μL) and suctioning the cleaning fluid with a pipette was performed three times. […] Finally, an enzyme reaction stop solution (100 μL) was added and an absorbance at 490 nm was measured with ARVO (PerkinElmer Japan Co., Ltd., Kanagawa, Japan) to calculate the concentration of a GLP-2 derivative.
Mice were intranasally administered with the PAS-CPP-GLP-2 derivative prepared in Example 1 (C-terminus 11-sugar, no linker, C11), the PAS-CPP-GLP-2 derivative (N-terminus 11-sugar, no linker, N11), and the PAS-CPP-GLP-2 derivative glycosylated via a C6 alkylene group (N-terminus 11-sugar, with C6 linker, C6), respectively (6.0 nmol/mouse). […] The amount of the GLP-2 derivative in the sample was quantified using a GLP-2 ELISA kit. […]

[2] = Distribution in brain by immunostaining of frozen brain sections (Examples 6 and 7); format: in vivo, mice; settings: Example 7, 3.0 nmol/mouse intranasal
Protocol: The brain was isolated 5 minutes after the administration and 20 minutes after the administration, respectively.
(§1) The brain isolated 5 minutes after the intranasal administration was subjected to infiltration fixation with 4% PFA at 4° C. overnight without performing perfusion fixation. The isolation of the brain 20 minutes after the intranasal administration was performed by the following process.
The mouse was fixed in a supine position under anesthesia with isoflurane, and the chest was incised. The tissue was fixed by perfusing with PBS, and subsequently with 4% PFA, from the left chamber of the heart throughout the whole body. The isolated brain was preserved in a 4% PFA solution. On the day following the isolation, the brain samples were substituted with 20% sucrose overnight (4° C.), and further with 30% sucrose overnight (4° C.). Thereafter, a frozen section with a thickness of 30 μm was prepared using a cryostat (CM3050S; Leica Microsystems).
The frozen brain section was mounted on a slide glass, and a circle was drawn around the section with a liquid blocker. A blocking buffer was added inside the circle and the section was subjected to blocking for 30 minutes at room temperature. Thereafter, the section was added with a first antibody solution including a GLP-2 polyclonal antibody, diluted by 200 times with a blocking solution, and subjected to incubation for 1 hour at room temperature. After rinsing three times with 1×PBS, the section was added with a second antibody solution including Alexa Fluor (trademark) 568 Goat Anti-Mouse IgG H&L, diluted by 500 times with a BSA/PBS solution, and subjected to incubation for 1 hour at room temperature. After rinsing three times with 1×PBS, the section was mounted with ProLong (trademark) Diamond Antifade Mountant. After confirming the solidification of the mountant, the section was subjected to fluorescent observation and imaging with a confocal laser microscope (TCS SP8; Leica) and a software (Leica Application Suite X Software; Leica).
Mice were intranasally administered with 16% DMSO or the GLP-2 derivatives (3.0 nmol/mouse), and the brain was isolated 5 minutes, 10 minutes, 20 minutes and 60 minutes after the administration.
as §1, with “isolated 5 minutes or 10 minutes after” for “isolated 5 minutes after”, “20 minutes or 60 minutes after the” for “20 minutes after the”
Sections of the olfactory bulb (OB) including olfactory nerves, pons/principal sensory nucleus of trigeminal nerve (Pr5), hippocampus (HIP) and dorsomedial nucleus of the hypothalamus (DMH) were prepared by referring to the Nissil staining images and the brain map (Paxinos and Franklin, 2003).
The frozen brain section was mounted on a slide glass, and a circle was drawn around the section with a liquid blocker. A blocking buffer was added inside the circle and the section was subjected to blocking for 30 minutes at room temperature. Thereafter, the section was added with a first antibody solution including a GLP-2 polyclonal antibody, diluted by 200 times with a blocking solution, and subjected to incubation for 1 hour at room temperature. […]

amount of GLP-2 derivative in brain (ELISA) [1]: below the detection limit | fluorescence at HIP and DMH ([2]; 20 minutes, FIG. 7B): intense fluorescence was observed | fluorescence at HIP and DMH ([2]; 60 minutes, FIG. 7C): fluorescence was not observed
Substance: FFLIPKGRRRRRRRRGGHADGSFSDEMNTILDNLAARDFINWLIQTKITDC(Cam)-OH [PAS-CPP-GLP-2 derivative (no sugar)]
fluorescence at OB and Pr5 ([2]; 5 minutes, FIG. 7A): a significant degree of fluorescence was observed | fluorescence at OB ([2]; 20 minutes, FIG. 7B): a significant degree of fluorescence was observed at OB | fluorescence intensity at OB or Pr5 relative to 5 minutes ([2]; 20 minutes, FIG. 7B): weaker than the fluorescence observed 5 minutes after the administration

Source: patent US20260265331A1, “GLYCOSYLATED NEUROPEPTIDE DERIVATIVE INCLUDING NEUROPEPTIDE SEQUENCE AND SUGAR CHAIN, PHARMACEUTICAL COMPOSITION, INTRANASAL/NASAL DROP FORMULATION, AND USE OF GLYCOSYLATED NEUROPEPTIDE DERIVATIVE” (TOKYO UNIVERSITY OF SCIENCE FOUNDATION, priority 2022, published 2026)
